# According to patent publication US11931424B2, “Combination MCL-1 inhibitors with anti-body drug conjugates” (Gilead Sciences, Inc., priority 2021, dated 2024):
# Test system: panel of breast cancer cell lines
# Assay: Compound A with targeted agents and chemotherapies, 72-hour in vitro proliferation assays
# Assay type: cell-based
# [1] = BT-20 cell line, compound A × partner, 72-hour proliferation
# [2] = CAL-51 cell line, compound A × partner, 72-hour proliferation
# [3] = CAL-85-1 cell line, compound A × partner, 72-hour proliferation
# [4] = CAL-120 cell line, compound A × partner, 72-hour proliferation
# [5] = CAL-148 cell line, compound A × partner, 72-hour proliferation
# [6] = CAMA-1 cell line, compound A × partner, 72-hour proliferation
# [7] = DU-4475 cell line, compound A × partner, 72-hour proliferation
# [8] = EVSA-T cell line, compound A × partner, 72-hour proliferation
# [9] = HCC38, compound A × partner, 72-hour proliferation
# [10] = HCC70, compound A × partner, 72-hour proliferation
# [11] = HCC1143 cell line, compound A × partner, 72-hour proliferation
# [12] = HCC1569, compound A × partner, 72-hour proliferation
# [13] = HCC1806, compound A × partner, 72-hour proliferation
# [14] = HCC1937, compound A × partner, 72-hour proliferation
# [15] = HCC1954, compound A × partner, 72-hour proliferation
# [16] = HCC2218, compound A × partner, 72-hour proliferation
# [17] = HDQ-P1, compound A × partner, 72-hour proliferation
# [18] = HMC-1-8, compound A × partner, 72-hour proliferation
# [19] = JIMT-1, compound A × partner, 72-hour proliferation
# [20] = AU565 cell line, compound A × partner, 72-hour proliferation
# [21] = KPL-1, compound A × partner, 72-hour proliferation
compound,measurement,setting,value
CC1(C)CCC(CN2CCN(c3ccc(C(=O)NS(=O)(=O)c4ccc(NCC5CCOCC5)c([N+](=O)[O-])c4)c(Oc4cnc5[nH]ccc5c4)c3)CC2)=C(c2ccc(Cl)cc2)C1 [ABT-199],Best CI,72 h,1.23
same,Bliss Volume,72 h,−1.15
same,HSA volume,72 h,−2.69
same,Loewe Volume,72 h,−0.11
same,Synergy Score,72 h,3.31
same,Best CI,[1],0.62
same,Bliss Volume,[1],6.83
same,HSA volume,[1],5.47
same,Loewe Volume,[1],5.94
same,Synergy Score,[1],13.39
same,Best CI,[2],0.58
same,Bliss Volume,[2],0.44
same,HSA volume,[2],−2.62
same,Loewe Volume,[2],0.83
same,Synergy Score,[2],0.56
same,Best CI,[3],0.83
same,Bliss Volume,[3],−1.49
same,HSA volume,[3],−2.11
same,Loewe Volume,[3],−1.27
same,Synergy Score,[3],1.08
same,Best CI,[4],0.85
same,Bliss Volume,[4],3.85
same,HSA volume,[4],−1.21
same,Loewe Volume,[4],−0.16
same,Synergy Score,[4],0.62
same,Best CI,[5],0.47
same,Bliss Volume,[5],3.32
same,HSA volume,[5],−0.66
same,Loewe Volume,[5],3.11
same,Synergy Score,[5],2.74
same,Best CI,[6],0.38
same,Bliss Volume,[6],8.30
same,HSA volume,[6],4.83
same,Loewe Volume,[6],8.10
same,Best CI,[7],1.15
same,Bliss Volume,[7],10.43
same,HSA volume,[7],8.46
same,Loewe Volume,[7],10.37
same,Synergy Score,[7],10.64
same,Best CI,[8],1.07
same,Bliss Volume,[8],1.29
same,HSA volume,[8],−0.86
same,Loewe Volume,[8],0.99
same,Synergy Score,[8],4.67
same,Best CI,[9],0.77
same,Bliss Volume,[9],−3.14
same,HSA volume,[9],−0.71
same,Loewe Volume,[9],0.50
same,Synergy Score,[9],5.65
same,Best CI,[10],0.43
same,Bliss Volume,[10],15.68
same,HSA volume,[10],14.46
same,Loewe Volume,[10],15.44
same,Synergy Score,[10],28.95
same,Best CI,[11],0.82
same,Bliss Volume,[11],2.43
same,HSA volume,[11],−2.65
same,Loewe Volume,[11],−1.50
same,Synergy Score,[11],3.01
same,Best CI,[12],0.51
same,Bliss Volume,[12],15.86
same,HSA volume,[12],14.50
same,Loewe Volume,[12],16.04
same,Synergy Score,[12],14.35
same,Best CI,[13],0.83
same,Bliss Volume,[13],3.80
same,HSA volume,[13],4.70
same,Loewe Volume,[13],5.23
same,Synergy Score,[13],6.31
same,Best CI,[14],0.22
same,Bliss Volume,[14],8.42
same,HSA volume,[14],2.68
same,Loewe Volume,[14],4.59
same,Synergy Score,[14],1.43
same,Best CI,[15],0.60
same,Bliss Volume,[15],12.55
same,HSA volume,[15],10.72
same,Loewe Volume,[15],12.18
same,Synergy Score,[15],17.16
same,Best CI,[16],0.43
same,Bliss Volume,[16],7.82
same,HSA volume,[16],8.19
same,Loewe Volume,[16],7.59
same,Synergy Score,[16],15.06
same,Best CI,[17],0.04
same,Bliss Volume,[17],1.77
same,HSA volume,[17],0.38
same,Loewe Volume,[17],1.74
same,Synergy Score,[17],0.96
same,Best CI,[18],0.90
same,Bliss Volume,[18],6.70
same,HSA volume,[18],5.15
same,Loewe Volume,[18],6.08
same,Synergy Score,[18],9.51
same,Best CI,[19],0.14
same,Bliss Volume,[19],−1.41
same,HSA volume,[19],−2.60
same,Loewe Volume,[19],−1.93
same,Synergy Score,[19],0.53
same,Synergy Score,"MCF7 cells, Compound A × partner agent, 72-hour proliferation",1.43
CC1(C)CCC(c2ccc(Cl)cc2)=C(CN2CCN(c3ccc(C(=O)NS(=O)(=O)c4ccc(N[C@H](CCN5CCOCC5)CSc5ccccc5)c(S(=O)(=O)C(F)(F)F)c4)cc3)CC2)C1 [ABT-263],Best CI,[20],0.61
same,Bliss Volume,[20],9.56
same,HSA volume,[20],3.63
same,Loewe Volume,[20],8.42
same,Synergy Score,[20],14.69
same,Best CI,[1],0.05
same,Bliss Volume,[1],36.91
same,HSA volume,[1],37.77
same,Loewe Volume,[1],37.81
same,Synergy Score,[1],84.06
same,Best CI,[2],0.09
same,Bliss Volume,[2],18.29
same,HSA volume,[2],17.50
same,Loewe Volume,[2],18.72
same,Synergy Score,[2],39.59
same,Best CI,[3],0.17
same,Bliss Volume,[3],13.36
same,HSA volume,[3],16.06
same,Loewe Volume,[3],15.97
same,Synergy Score,[3],29.64
same,Best CI,[4],0.21
same,Bliss Volume,[4],15.10
same,HSA volume,[4],15.51
same,Loewe Volume,[4],16.04
same,Synergy Score,[4],24.96
same,Best CI,[5],0.10
same,Bliss Volume,[5],28.25
same,HSA volume,[5],22.50
same,Loewe Volume,[5],27.96
same,Synergy Score,[5],51.82
same,Best CI,[6],0.14
same,Bliss Volume,[6],19.67
same,HSA volume,[6],17.49
same,Loewe Volume,[6],19.32
same,Synergy Score,[6],41.66
same,Best CI,[7],0.48
same,Bliss Volume,[7],24.62
same,HSA volume,[7],22.37
same,Loewe Volume,[7],22.67
same,Synergy Score,[7],35.34
same,Best CI,[8],0.36
same,Bliss Volume,[8],15.42
same,HSA volume,[8],14.19
same,Loewe Volume,[8],14.63
same,Synergy Score,[8],28.16
same,Best CI,[9],0.13
same,Bliss Volume,[9],27.10
same,Synergy Score,[9],37.11
same,Best CI,[10],0.03
same,Bliss Volume,[10],44.63
same,HSA volume,[10],44.49
same,Loewe Volume,[10],44.97
same,Synergy Score,[10],97.06
same,Best CI,[11],0.05
same,Bliss Volume,[11],27.56
same,HSA volume,[11],26.07
same,Loewe Volume,[11],27.51
same,Synergy Score,[11],43.54
same,Best CI,[12],0.13
same,Bliss Volume,[12],27.53
same,HSA volume,[12],24.55
same,Loewe Volume,[12],26.18
same,Synergy Score,[12],46.64
same,Best CI,[13],0.03
same,Bliss Volume,[13],45.40
same,HSA volume,[13],46.37
same,Loewe Volume,[13],46.26
same,Synergy Score,[13],90.68
same,Best CI,[14],0.18
same,Bliss Volume,[14],26.87
same,HSA volume,[14],22.28
same,Loewe Volume,[14],26.31
same,Synergy Score,[14],43.69
same,Best CI,[15],0.03
same,Bliss Volume,[15],36.37
same,HSA volume,[15],36.78
same,Loewe Volume,[15],37.10
same,Synergy Score,[15],76.44
same,Best CI,[16],0.07
same,Bliss Volume,[16],28.59
same,HSA volume,[16],29.77
same,Loewe Volume,[16],28.05
same,Synergy Score,[16],59.76
same,Best CI,[17],0.09
same,Bliss Volume,[17],27.19
same,HSA volume,[17],27.41
same,Loewe Volume,[17],28.17
same,Synergy Score,[17],52.33
same,Best CI,[18],0.20
same,Bliss Volume,[18],13.21
same,HSA volume,[18],10.36
same,Loewe Volume,[18],11.80
same,Synergy Score,[18],21.09
same,Best CI,[19],0.18
same,Bliss Volume,[19],18.71
same,HSA volume,[19],12.60
same,Loewe Volume,[19],14.35
same,Synergy Score,[19],19.55
same,Best CI,[21],0.14
same,Synergy Score,[21],13.50
